Values joined by “and” are separate entries in the source; they are usually repeats but may differ in a detail not shown here. Equal values may be shown once. Records with an inconclusive call do not appear.
System: BDF1 mice, s.c. Lewis lung carcinoma, T/C %
Test: NCI In Vivo Anticancer Drug Screen. Data for tumor model Lewis Lung Carcinoma (subcutaneous) in B6D2F1 (BDF1) mice
Method in brief: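 Readout: survival or tumor size, expressed as treated (T) over vehicle control (C). Transplantable tumor implanted in mice; compound given to the treated group.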

Question: With CO[C@H]1Nc2c(ccc(C)c2O)C(=O)N2C=C(/C=C/C(N)=O)C[C@@H]12 as the compound, how does the T/C (endpoint: median survival time, dose: 0.03 mg/kg/injection, schedule: Q04DX003 (ip), vehicle: saline with Tween-80, higher = longer survival) read?
Answer: Its T/C is 92 % of control.

Question: What about the T/C (endpoint: median survival time, dose: 0.04 mg/kg/injection, schedule: Q04DX003 (ip), vehicle: saline with Tween-80, higher = longer survival) of the same compound?
Answer: Its T/C is 103 % of control.

Question: And the T/C (endpoint: median survival time, dose: 0.06 mg/kg/injection, schedule: Q04DX003 (ip), vehicle: saline with Tween-80, higher = longer survival)?
Answer: The T/C was 89 % of control and 98 % of control.

Question: And the T/C (endpoint: median survival time, dose: 0.13 mg/kg/injection, schedule: Q04DX003 (ip), vehicle: saline with Tween-80, higher = longer survival)?
Answer: The T/C was 98 % of control.

Question: And the T/C (endpoint: median survival time, dose: 0.25 mg/kg/injection, schedule: Q04DX003 (ip), vehicle: saline with Tween-80, higher = longer survival)?
Answer: Its T/C is 99 % of control.

Question: What about the T/C (endpoint: median survival time, dose: 50.0 micrograms/kg/injection, schedule: Q04DX003 (ip), vehicle: saline + alcohol, higher = longer survival) of the same compound?
Answer: Its T/C is 107 % of control.

Question: What about the T/C (endpoint: median survival time, dose: 100.0 micrograms/kg/injection, schedule: Q04DX003 (ip), vehicle: saline + alcohol, higher = longer survival) of the same compound?
Answer: Its T/C is 106 % of control.

Question: What about the T/C (endpoint: median survival time, dose: 200.0 micrograms/kg/injection, schedule: Q04DX003 (ip), vehicle: saline + alcohol, higher = longer survival) of the same compound?
Answer: The T/C was 97 % of control.

Question: For CC(C)=CCC1=C(O)c2ccccc2C(=O)C1=O, which T/C (endpoint: mean tumor weight, dose: 45.0 mg/kg/injection, schedule: Q01DX011 (ip), vehicle: water, higher = larger tumour) is on record?
Answer: Its T/C is 71 % of control.

Question: What about the T/C (endpoint: mean tumor weight, dose: 67.0 mg/kg/injection, schedule: Q01DX011 (ip), vehicle: water, higher = larger tumour) of the same compound?
Answer: The T/C was 85 % of control.

Question: What about the T/C (endpoint: mean tumor weight, dose: 100.0 mg/kg/injection, schedule: Q01DX011 (ip), vehicle: water, higher = larger tumour) of the same compound?
Answer: The T/C was 93 % of control.

Question: O=[N+]([O-])c1ccc(/C=N/c2ncc(Br)s2)o1 was tested. Which T/C (endpoint: median survival time, dose: 6.25 mg/kg/injection, schedule: Q01DX009 (ip), vehicle: Klucel (hydroxypropylcellulose) (HPC), higher = longer survival) did it give?
Answer: The T/C was 89 % of control.

Question: What about the T/C (endpoint: median survival time, dose: 12.5 mg/kg/injection, schedule: Q01DX009 (ip), vehicle: Klucel (hydroxypropylcellulose) (HPC), higher = longer survival) of the same compound?
Answer: The T/C was 109 % of control.

Question: For O=P(O)(NCCCl)NCCCl, which T/C (endpoint: median survival time, dose: 12.5 mg/kg/injection, schedule: Q01DX001 (ip), vehicle: saline, higher = longer survival) is on record?
Answer: Its T/C is 114 % of control and 115 % of control.

Question: And the T/C (endpoint: median survival time, dose: 25.0 mg/kg/injection, schedule: Q01DX001 (ip), vehicle: saline, higher = longer survival)?
Answer: The T/C was 113 % of control and 114 % of control.

Question: And the T/C (endpoint: median survival time, dose: 100.0 mg/kg/injection, schedule: Q01DX001 (ip), vehicle: saline, higher = longer survival)?
Answer: Its T/C is 200 % of control and 243 % of control.

Question: CN(Cc1cnc2nc(N)nc(N)c2n1)c1ccc(C(=O)N[C@@H](CCC(=O)O)C(=O)O)cc1 was tested. Which T/C (endpoint: mean tumor weight, dose: 0.5 mg/kg/injection, schedule: Q01DX011 (ip), vehicle: alkali diluted with saline, higher = larger tumour) did it give?
Answer: The T/C was 91 % of control.

Question: What about the T/C (endpoint: mean tumor weight, dose: 0.5 mg/kg/injection, schedule: Q01DX011 (ip), vehicle: carboxymethylcellulose (CMC), higher = larger tumour) of the same compound?
Answer: Its T/C is 97 % of control.

Question: And the T/C (endpoint: mean tumor weight, dose: 0.75 mg/kg/injection, schedule: Q01DX011 (ip), vehicle: alkali diluted with saline, higher = larger tumour)?
Answer: Its T/C is 111 % of control.

Question: And the T/C (endpoint: mean tumor weight, dose: 1.0 mg/kg/injection, schedule: Q01DX011 (ip), vehicle: alkali diluted with saline, higher = larger tumour)?
Answer: Its T/C is 83 % of control.

Question: What about the T/C (endpoint: mean tumor weight, dose: 1.0 mg/kg/injection, schedule: Q01DX011 (ip), vehicle: carboxymethylcellulose (CMC), higher = larger tumour) of the same compound?
Answer: The T/C was 91 % of control.

Question: And the T/C (endpoint: mean tumor weight, dose: 1.5 mg/kg/injection, schedule: Q01DX011 (ip), vehicle: alkali diluted with saline, higher = larger tumour)?
Answer: The T/C was 93 % of control.

Question: What about the T/C (endpoint: mean tumor weight, dose: 2.0 mg/kg/injection, schedule: Q01DX011 (ip), vehicle: alkali diluted with saline, higher = larger tumour) of the same compound?
Answer: The T/C was 72 % of control.

Question: And the T/C (endpoint: mean tumor weight, dose: 2.0 mg/kg/injection, schedule: Q01DX011 (ip), vehicle: carboxymethylcellulose (CMC), higher = larger tumour)?
Answer: Its T/C is 90 % of control.

Question: And the T/C (endpoint: mean tumor weight, dose: 4.0 mg/kg/injection, schedule: Q01DX011 (ip), vehicle: carboxymethylcellulose (CMC), higher = larger tumour)?
Answer: The T/C was 25 % of control.

Question: What about the T/C (endpoint: median survival time, dose: 0.5 mg/kg/injection, schedule: Q01DX009 (ip), vehicle: Klucel (hydroxypropylcellulose) (HPC), higher = longer survival) of the same compound?
Answer: Its T/C is 107 % of control.

Question: What about the T/C (endpoint: median survival time, dose: 0.5 mg/kg/injection, schedule: Q01DX009 (ip), vehicle: saline with Tween-80, higher = longer survival) of the same compound?
Answer: The T/C was 89 % of control and 100 % of control.

Question: What about the T/C (endpoint: median survival time, dose: 1.0 mg/kg/injection, schedule: Q01DX009 (ip), vehicle: Klucel (hydroxypropylcellulose) (HPC), higher = longer survival) of the same compound?
Answer: Its T/C is 112 % of control.

Question: What about the T/C (endpoint: median survival time, dose: 1.0 mg/kg/injection, schedule: Q01DX009 (ip), vehicle: saline with Tween-80, higher = longer survival) of the same compound?
Answer: The T/C was 93 % of control.

Question: What about the T/C (endpoint: median survival time, dose: 1.0 mg/kg/injection, schedule: Q01DX009 (ip), vehicle: saline, higher = longer survival) of the same compound?
Answer: Its T/C is 100 % of control.

Question: What about the T/C (endpoint: median survival time, dose: 2.0 mg/kg/injection, schedule: Q01DX009 (ip), vehicle: saline, higher = longer survival) of the same compound?
Answer: Its T/C is 102 % of control.

Question: And the T/C (endpoint: median survival time, dose: 4.0 mg/kg/injection, schedule: Q01DX009 (ip), vehicle: Klucel (hydroxypropylcellulose) (HPC), higher = longer survival)?
Answer: Its T/C is 121 % of control.

Question: And the T/C (endpoint: median tumor weight (est.), dose: 0.5 mg/kg/injection, schedule: Q01DX009 (ip), vehicle: saline with Tween-80, higher = larger tumour)?
Answer: Its T/C is 95 % of control.

Question: And the T/C (endpoint: median tumor weight (est.), dose: 1.0 mg/kg/injection, schedule: Q01DX009 (ip), vehicle: saline with Tween-80, higher = larger tumour)?
Answer: The T/C was 86 % of control.

Question: What about the T/C (endpoint: median tumor weight (est.), dose: 1.4 mg/kg/injection, schedule: Q01DX011 (ip), vehicle: sodium bicarbonate, higher = larger tumour) of the same compound?
Answer: The T/C was 99 % of control.

Question: What about the T/C (endpoint: median tumor weight (est.), dose: 2.1 mg/kg/injection, schedule: Q01DX011 (ip), vehicle: sodium bicarbonate, higher = larger tumour) of the same compound?
Answer: Its T/C is 74 % of control.
